What was measured:
[1] = molecular target: T1, human A2a adenosine receptor (Homo sapiens, UniProt P29274); assay: A2a binding affinity using radioligand binding, Method (A); conditions: Method (A): [3H]SCH58261 filtration binding, membranes expressing human A2a
T1 construct: purchased Perkin Elmer RBHA2aM400UA; host or cells: HEK293 or CHO cells (recombinant expression)
Source text: (§1) Method (A) describes the procedure used to measure A2a binding affinity using radioligand binding. Method (B) describes the procedure used to measure A2a binding affinity using SPA technology. The method used to measure A2b binding affinity is also described below. The method used to determine the A2a IC50 value reported for each compound in the table is indicated next to the reported value. The A2b IC50 value measured using the A2b binding affinity assay is shown in the table next to the compound under the corresponding A2a value.
The A2a receptor affinity binding assay measured the amount of binding of a tritiated ligand with high affinity for the A2a adenosine receptor to membranes made from HEK293 or CHO cells recombinantly expressing the human A2a adenosine receptor, in the presence of varying concentrations of a compound of the invention. The data were generated using either filtration binding or a homogenous scintillation proximity assay (SPA).
Method (A): Measurement of A2a Binding Affinity Using Radioligand Binding
148 μL (5 μg/mL) membranes (Perkin Elmer, Cat. No. RBHA2aM400UA) and 2 μL compounds of the invention to be tested (test compound) were transferred to individual wells of a 96-well polypropylene assay plate and incubated for 15 to 30 minutes at room temperature. [^3H] SCH58261 ((7-(2-phenylethyl)-5-amino-2-(2-furyl)-pyrazolo-[4,3-e]-1,2,4-triazolo[1,5-c]pyrimidine)) was diluted in assay buffer (50 mM Tris pH 7.4, 10 mM MgCl2, 0.005% Tween20) to a concentration of 4 nM and 50 μL transferred to each well of the assay plate. To define total and non-specific binding, wells containing 1% DMSO and 1 μM ZM241385 (Tocris Bioscience, Cat. No. 1036) respectively, were also included. The assay plate was incubated at room temperature for 60 minutes with agitation. Using a FilterMate Harvester® (Perkin Elmer), the contents of the assay plate were filtered through a UniFilter-96® PEI coated plate (Perkin Elmer Cat. No. 6005274 or 6005277). Filtering was achieved by aspirating the contents of the assay plate for 5 seconds, then washing and aspirating the contents three times with ice-cooled wash buffer (50 mM Tris-HCl pH 7.4, 150 mM NaCl) and allowing the vacuum manifold to dry the plate for 30 seconds. The filter plate was incubated for at least 1 hour at 55° C. and allowed to dry. The bottom of the filter plate was sealed with backing tape. 40 μL Ultima Gold™ (Perkin Elmer, Cat. No. 6013329) was added to each well of the filter plate and the top of the plate was sealed with TopSeal-A PLUS® clear plate seal (Perkin Elmer, Cat. No. 6050185). The plate was incubated for at least 20 minutes, and then the amount of radioactivity remaining in each well was determined using a TopCount® (Perkin Elmer) scintillation counter. After normalization to total and non-specific binding, the percent effect at each compound concentration was calculated. The plot of percent effect versus the log of compound concentration was analyzed electronically using a 4-parameter logistic fit based on the Levenberg-Marquardt algorithm to generate IC50 values.

[2] = molecular target: T2, human A2b adenosine receptor (Homo sapiens, UniProt P29275); assay: A2b binding affinity, radioligand filtration binding assay; conditions: tritiated proprietary A2b antagonist, HEK293 membranes expressing human A2b
T2 construct: purchased Perkin Elmer ES-013-C; host or cells: HEK293 cells recombinantly expressing the receptor; membranes made from them
T2 sequence (P29275 1-332): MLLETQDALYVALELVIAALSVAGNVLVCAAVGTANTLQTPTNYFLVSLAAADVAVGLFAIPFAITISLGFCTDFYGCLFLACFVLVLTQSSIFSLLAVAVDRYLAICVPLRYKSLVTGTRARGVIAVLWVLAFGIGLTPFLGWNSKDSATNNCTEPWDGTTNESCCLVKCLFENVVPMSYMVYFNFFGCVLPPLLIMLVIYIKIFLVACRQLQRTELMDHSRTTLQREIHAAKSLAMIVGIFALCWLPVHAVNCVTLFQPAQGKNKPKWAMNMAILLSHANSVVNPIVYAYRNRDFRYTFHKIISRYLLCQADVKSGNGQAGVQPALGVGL
Source text: as §1
Measurement of A2b Binding Affinity
The reported affinity of the compounds of the invention for the human A2b adenosine receptor was determined experimentally using a radioligand filtration binding assay. This assay measures the amount of binding of a tritiated proprietary A2b receptor antagonist, in the presence and absence of a compound of the invention, to membranes made from HEK293 cells recombinantly expressing the human A2b adenosine receptor (Perkin Elmer, Cat. No. ES-013-C).
148 μL (135 μg/mL) membranes and 2 μL test compounds were transferred to individual wells of a 96-well polypropylene assay plate and incubated for 15 to 30 minutes at room temperature with agitation. Tritiated radioligand was diluted to a concentration of 14 nM in assay buffer (phosphate buffered saline without Magnesium and Calcium, pH 7.4; GE Healthcare Life Sciences, Cat. No. SH30256.01) and then 50 μL of the solution were transferred to each well of the assay plate. To define total and non-specific binding, wells containing 1% DMSO and 20 μM N-ethylcarboxamidoadenosine (Tocris Bioscience, Cat. No. 1691) respectively, were also included. The wells of the assay plate were incubated at room temperature for 60 minutes with agitation, then filtered using a FilterMate Harvester® (Perkin Elmer) or similar equipment through a UniFilter-96® PEI coated plate (Perkin Elmer Cat. No. 6005274 or 6005277). Filtering was achieved by aspirating the contents of the assay plate for 5 seconds, then washing and aspirating the contents three times with ice-cooled wash buffer (assay buffer supplemented with 0.0025% Brij58) and allowing the vacuum manifold to dry the plate for 30 seconds. The filter plate was incubated for at least 1 hour at 55° C. and allowed to dry. The bottom of the filter plate was then sealed with backing tape. 40 μL Ultima Gold™ (Perkin Elmer, Cat. No. 6013329) was added to each well of the filter plate and the top of the plate was sealed with TopSeal-A PLUS® clear plate seal (Perkin Elmer, Cat. No. 6050185). The plates were then incubated for at least 20 minutes, and then the amount of radioactivity remaining in each well was determined using a TopCount® (Perkin Elmer) scintillation counter. After normalization to total and non-specific binding, the percent effect at each compound concentration was calculated. The plot of percent effect versus the log of compound concentration was analyzed electronically using a 4-parameter logistic fit based on the Levenberg-Marquardt algorithm to generate IC50 values.

T1 sequence (P29274 whole entry): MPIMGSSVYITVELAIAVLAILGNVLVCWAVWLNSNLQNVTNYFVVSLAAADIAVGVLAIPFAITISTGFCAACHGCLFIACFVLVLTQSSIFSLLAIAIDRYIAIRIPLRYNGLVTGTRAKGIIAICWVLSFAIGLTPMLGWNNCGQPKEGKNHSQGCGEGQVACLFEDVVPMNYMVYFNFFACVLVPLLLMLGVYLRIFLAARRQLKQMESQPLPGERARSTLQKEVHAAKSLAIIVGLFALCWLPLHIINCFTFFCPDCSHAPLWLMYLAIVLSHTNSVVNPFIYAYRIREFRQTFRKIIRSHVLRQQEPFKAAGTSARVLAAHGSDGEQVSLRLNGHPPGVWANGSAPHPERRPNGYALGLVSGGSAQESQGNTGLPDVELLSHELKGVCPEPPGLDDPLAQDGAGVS

Row | SMILES | IC50 [1] [nM] | IC50 [2] [nM]
1 | Nc1nc(-c2ccccc2)cc2nc([C@@H]3CC(F)(F)CN3)nn12 [Example 2.1, (S)-2-(4,4-difluoropyrrolidin-2-yl)-7-phenyl-[1,2,4]triazolo[1,5-c]pyrimidin-5-amine] | 12 | 
2 | Cc1c(-c2ncco2)nc(N)n2nc(C3CCCC(C)(O)C3)nc12 (single isomer, unassigned) [Example 8.3-2, (1-R or S,3-R or S)-3-(5-amino-8-methyl-7-(oxazol-2-yl)-[1,2,4]triazolo[1,5-c]pyrimidin-2-yl)-1-methylcyclohexan-1-ol] | 0.9 | 64.5
3 | Cc1c(-c2ncco2)nc(N)n2nc([C@H]3CC[C@@H](C)N(c4cnn(CC(C)(C)O)c4)C3)nc12 [Example 2.13, 1-(4-((2R,5S)-5-(5-amino-8-methyl-7-(oxazol-2-yl)-[1,2,4]triazolo[1,5-c]pyrimidin-2-yl)-2-methylpiperidin-1-yl)-1H-pyrazol-1-yl)-2-methylpropan-2-ol] | 47.9 | 1310
4 | Cc1c(-c2ncco2)nc(N)n2nc([C@@H]3CCCN(c4cnn(C(C)C(C)(C)O)c4)C3)nc12 (single isomer, unassigned) [Example 2.11, (S or R)-3-(4-((R)-3-(5-amino-8-methyl-7-(oxazol-2-yl)-[1,2,4]triazolo[1,5-c]pyrimidin-2-yl)piperidin-1-yl)-1H-pyrazol-1-yl)-2-methylbutan-2-ol] | 3.2 | 81.6
5 | Cc1c(-c2ncco2)nc(N)n2nc([C@H]3C[C@H](c4ccc(C(C)(C)O)cn4)C3)nc12 [Example 2.19, 2-(6-((1,3-trans)-3-(5-amino-8-methyl-7-(oxazol-2-yl)-[1,2,4]triazolo[1,5-c]pyrimidin-2-yl)cyclobutyl)pyridin-3-yl)propan-2-ol] | 5.2 | 
6 | Nc1nc(-c2ncco2)cc2nc([C@@H]3CC(F)(F)CN3)nn12 [Example 2.2, (S)-2-(4,4-difluoropyrrolidin-2-yl)-7-(oxazol-2-yl)-[1,2,4]triazolo[1,5-c]pyrimidin-5-amine] | 143 | 
7 | Cc1c(-c2ncco2)nc(N)n2nc([C@@H]3CCCN(c4cnn(C(C)C(C)(C)O)c4)C3)nc12 (single isomer, unassigned) [Example 2.10, (R or S)-3-(4-((R)-3-(5-amino-8-methyl-7-(oxazol-2-yl)-[1,2,4]triazolo[1,5-c]pyrimidin-2-yl)piperidin-1-yl)-1H-pyrazol-1-yl)-2-methylbutan-2-ol] | 1.2 | 261
8 | Cc1c(-c2ncco2)nc(N)n2nc([C@@H]3CC[C@H](C)NC3)nc12 [Example 2.9, 8-methyl-2-((3R,6S)-6-methylpiperidin-3-yl)-7-(oxazol-2-yl)-[1,2,4]triazolo[1,5-c]pyrimidin-5-amine] | 129 | 2410
9 | Cc1c(-c2cccc(F)c2)nc(N)n2nc([C@@H]3CCCNC3)nc12 [Example 2.4, (R)-7-(3-fluorophenyl)-8-methyl-2-(piperidin-3-yl)-[1,2,4]triazolo[1,5-c]pyrimidin-5-amine] | 57.7 | 873
10 | Cc1c(-c2ncco2)nc(N)n2nc([C@H]3C[C@H](c4ccc(C(C)(C)N)cn4)C3)nc12 [Example 2.20, 2-((1,3-trans)-3-(5-(2-aminopropan-2-yl)pyridin-2-yl)cyclobutyl)-8-methyl-7-(oxazol-2-yl)[l,2,4]triazolo[1,5-c]pyrimidin-5-amine] | 9.9 | 
11 | Cc1c(-c2ncco2)nc(N)n2nc([C@H]3C[C@@H](c4ccc(C(C)(C)O)cn4)C3)nc12 [Example 2.18, 2-(6-((1,3-cis)-3-(5-amino-8-methyl-7-(oxazol-2-yl)-[1,2,4]triazolo[1,5-c]pyrimidin-2-yl)cyclobutyl)pyridin-3-yl)propan-2-ol] | 3.7 | 
12 | Cc1c(-c2ncco2)nc(N)n2nc([C@H]3C[C@@H](c4ccc(C(C)(C)N)cn4)C3)nc12 [Example 2.21, 2-((1,3-cis)-3-(5-(2-aminopropan-2-yl)pyridin-2-yl)cyclobutyl)-8-methyl-7-(oxazol-2-yl)-[1,2,4]triazolo[1,5-c]pyrimidin-5-amine] | 26.3 | 

Now from value to compound:

Row | IC50 [1] [nM] | IC50 [2] [nM] | SMILES
13 | 2.7 | 191 | Cc1c(-c2ncco2)nc(N)n2nc([C@@H]3CCCN(c4cnn(CC5(O)CCC5)c4)C3)nc12 [Example 3.8, (R)-1-((4-(3-(5-amino-8-methyl-7-(oxazol-2-yl)-[1,2,4]triazolo[1,5-c]pyrimidin-2-yl)piperidin-1-yl)-1H-pyrazol-1-yl)methyl)cyclobutan-1-ol]
14 | 357 | 2090 | Cc1c(-c2cccc(F)c2)nc(N)c2nc(C3CCC(C)(O)C3)nn12 (single isomer, unassigned) [Example 8.9, (1R,3S and 1S,3R) or (1R,3R and 1S,3S)-3-(8-amino-6-(3-fluorophenyl)-5-methyl-[1,2,4]triazolo[1,5-a]pyrazin-2-yl)-1-methylcyclopentan-1-ol]
15 | 14.9 |  | Nc1nc(-c2ccccc2)cc2nc([C@@H]3CC(F)(F)CN3C(=O)C3CC3)nn12 [Example 4.3, (S)-(2-(5-amino-7-phenyl-[1,2,4]triazolo[1,5-c]pyrimidin-2-yl)-4,4-difluoropyrrolidin-1-yl)(cyclopropyl)methanone]
16 | 1.2 | 167 | Cc1c(-c2ncco2)nc(N)n2nc([C@@H]3CCCN(c4cnn(C(C)C)c4)C3)nc12 [Example 3.12, (R)-2-(1-(1-isopropyl-1H-pyrazol-4-yl)piperidin-3-yl)-8-methyl-7-(oxazol-2-yl)-[1,2,4]triazolo[1,5-c]pyrimidin-5-amine]
17 | 15.7 |  | Cc1c(-c2ncco2)nc(N)n2nc([C@H]3C[C@H](c4ccc(C(C)(C)N)nc4)C3)nc12 [Example 10.6, 2-((1,3-trans)-3-(6-(2-aminopropan-2-yl)pyridin-3-yl)cyclobutyl)-8-methyl-7-(oxazol-2-yl)-[1,2,4]triazolo[1,5-c]pyrimidin-5-amine]

Source: patent US12466831B2, “Substituted amino triazolopyrimidine and amino triazolopyrazine adenosine receptor antagonists, pharmaceutical compositions and their use” (Merck Sharp & Dohme LLC, priority 2018, dated 2025)
